Assay results from patent US7098195B2, “Fluorinated glucosamine analogs useful for modulating post-translational glycosylations on cells” (Health Research, Inc., priority 2001, dated 2006).

Assays:
C57BL/6 mice = experiment: Langerhans cell migration to draining lymph nodes and FITC presentation in mice; format: in vivo, mouse; settings: 250 mg/kg/day, cumulative dose of 750 mg/kg, 4-day experiment
Procedure: Six to eight-week old C57BL/6 mice from Charles River Laboratories (Wilmington, Mass.) were housed in pathogen-free conditions in the animal facility at the Harvard Institutes of Medicine and utilized in these experiments. For analysis of LC migration to draining lymph nodes and antigenic presentation by dendritic cells (DC), right ears of mice were painted with 25 μl of 0.5% FITC, a contact sensitizing agent dissolved in acetone-dibutyl phthalate vehicle (1:1 v/v), while left ears were painted with 25 μl of vehicle alone. After 30 h, regional auricular/cervical lymph nodes draining right or left ears, respectively, were isolated and single cell suspensions were prepared. To enrich for DC, cell suspensions were subjected to Optiprep™ (Accurate Chemicals, Westbury, N.Y.) discontinuous gradient centrifugation. […] Positive cells stained with PE-anti-CD11c were gated and analyzed for FITC expression. […]
Following a 30 h incubation, CD11c-positive LC isolated from the draining lymph nodes were analyzed for FITC expression by flow cytometry.

HECA-452 epitopes = experiment: Flow cytometric analysis of HECA-452 epitopes on human T-lymphocytes; format: cell-based; settings: for HECA-452 Mean Channel Fluorescence: CLA+ T-cells
Procedure: Only positive cells, which were those cells with fluorescence above background autofluorescence and fluorochrome-conjugated secondary Ab staining, were analyzed.
For analysis of CLA expression on T-cells treated with glycoconjugate modifiers, CLA^+ T-cells were first pretreated with neuraminidase (0.1 U/ml at 37° C. for 1 h) to eliminate functional CLA and cleave all HECA-452 reactive epitopes from the cell surface (35–38). Since we wanted to investigate whether these compounds directly affected CLA expression and function, neuraminidase pretreatment followed by incubations with glycosylation modifiers allowed for examination of de novo synthesized CLA/HECA-452 epitopes re-expressed on the cell surface. After neuraminidase digestion, cells were then incubated with tunicamycin (0.02 mM) (an inhibitor of GlcNAc phosphotransferase, the initial step of N-glycosylation), swainsonine (0.23 mM) (an inhibitor of α-mannosidase II and complex-type N-glycosylation), 4-F-GlcNAc (0.05 mM) (putative inhibitor of poly-N-acetyllactosamine biosynthesis), BAG (an inhibitor of O-glycan biosynthesis) (<2 mM) or GlcNAc (5 mM) (negative control, naturally-occurring metabolic counterpart of 4-F-GlcNAc)for 30 h in the presence of human recombinant IL-2. […] Concentrations for BAG were selected based on maximal O-glycosylation inhibitory effects at non-growth inhibitory concentrations as previously reported (39). To determine a suitable concentration of 4-F-GlcNAc for examining glycoconjugate-modifying effects without influencing cell growth or protein synthesis, we performed preliminary growth inhibitory experiments of cells incubated with 4-F-GlcNAc for 2 cell doublings (˜36 h) at 37° C. (cell viability assessed by Trypan-blue exclusion).
Flow cytometric analysis was performed on human leukocytes utilizing both direct and indirect immunofluorescence staining approaches. All cells utilized for these experiments were washed twice with cold PBS/2%FBS and suspended at 10^7/ml PBS/1% FBS. Primary antibodies, anti-CLA (HECA-452), -CD4, -CD8, CD43 (L60) and PSGL-1 (PL-2) along with the appropriate isotype-matched control antibodies were incubated with the cells for 30 min on ice. Following two washes with PBS/2%FBS, cells were resuspended in PBS/1%FBS and fluorochrome-conjugated secondary antibodies (2 μl) and incubated for 30 min on ice.

[1] = tested on: human colon HT-29 cancer cells; settings: HT-29 cells; cited from earlier work

## CC(=O)N[C@H]1C(OC(C)=O)O[C@H](COC(C)=O)[C@@H](F)[C@@H]1OC(C)=O (stereo partly drawn) [4-F-GlcNAc, 2-acetamido-2-deoxy-1,3,6-tri-O-acetyl-4-deoxy-4-fluoro-D-glucopyranose]
C57BL/6 mice
  weight gain: did not show similar weight gain
HECA-452 epitopes; 0.05, 0.1 or 0.5 mM for 30 hr after neuraminidase
  HECA-452 epitopes on CLA+ T-cells: marked, concentration-dependent decrease
HECA-452 epitopes; neuraminidase then recovery in 0.05 mM
  HECA-452 Mean Channel Fluorescence: 228
HECA-452 epitopes; neuraminidase then recovery in 0.1 mM
  HECA-452 Mean Channel Fluorescence: 217
HECA-452 epitopes; neuraminidase then recovery in 0.5 mM
  HECA-452 Mean Channel Fluorescence: 62
[1]
  radiolabeled sugar incorporation into cell surface glycoproteins: inhibition of radiolabeled glucosamine, fucose and galactose incorporation
